Data reported in PMC10296591, “Potent GST Ketosteroid Isomerase Activity Relevant to Ecdysteroidogenesis in the Malaria Vector Anopheles gambiae” (Biomolecules, 2023).

Legend:
Assay type in all cases: biochemical
Nobo [1] = molecular target: T1, Nobo (Anopheles gambiae, UniProt Q8WQJ5); experiment: steady-state kinetics of double-bond isomerization by purified enzyme (kcat/Km)
T1 construct: gene GSTe8
T1 sequence (Q8WQJ5 1-217): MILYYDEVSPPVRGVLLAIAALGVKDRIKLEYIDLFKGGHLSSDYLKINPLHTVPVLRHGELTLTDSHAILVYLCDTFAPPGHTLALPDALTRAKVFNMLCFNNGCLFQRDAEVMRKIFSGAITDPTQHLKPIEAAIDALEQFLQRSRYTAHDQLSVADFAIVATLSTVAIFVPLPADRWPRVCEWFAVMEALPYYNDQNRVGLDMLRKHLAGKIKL

Nobo D111N = molecular target: T2, Nobo D111N (Anopheles gambiae, UniProt Q8WQJ5, D111N); experiment: spectrophotometric inhibition assay of purified mutant enzyme with DCNB and glutathione
T2 construct: gene GSTe8; N-terminal hexahistidine tag

Nobo [2] = molecular target: T1, Nobo; experiment: spectrophotometric inhibition assay of purified enzyme with DCNB and glutathione
Nobo [3] = molecular target: T1, Nobo; experiment: spectrophotometric specific activity of purified enzyme

Compound	specific activity (Nobo [3]) [μmol/min per mg]	further results
C[C@]12CCC(=O)CC1=CC[C@@H]1[C@@H]2CC[C@]2(C)C(=O)CC[C@@H]12 [5-AD, 5-androsten-3,17-dione]	–	steady-state kinetics of double-bond isomerization by purified enzyme (kcat/Km) (Nobo [1]): (6.9 ± 0.3) × 10^6 M^−1s^−1
C[C@]12CC[C@@H]3c4ccc(O)cc4CC[C@H]3[C@@H]1CC[C@@H]2O [17β-estradiol]	–	IC50 (Nobo D111N): 15.5 ± 6 µM; IC50 (Nobo [2]): 0.17 ± 0.03 µM
C=CCN=C=S [AITC, allyl isothiocyanate]	3.3 ± 0.4	–
O=[N+]([O-])c1ccc(Cl)c([N+](=O)[O-])c1 [CDNB, 1-chloro-2,4-dinitribenzene]	24.7 ± 3.4	–
CC(C)(OO)c1ccccc1 [CuOOH, cumene hydroperoxide]	5.0 ± 0.5	–
O=[N+]([O-])c1ccc(Cl)c(Cl)c1 [DCNB, 1,2-dichloro-4-nitrobenzene]	16.4 ± 1.9	–
S=C=NCCc1ccccc1 [PEITC, phenethyl isothiocyanate]	0.4 ± 0.1	–
